Measured values: patent US20160033533A1, “2-HYDROXYGLUTARATE AS A BIOMARKER FOR CHRONIC HYPOXIA” (MEMORIAL SLOAN KETTERING CANCER CENTER, priority 2011, published 2016)

System: SF188 cells
Test: Viability of glutamine-starved hypoxic SF188 cells (trypan blue dye exclusion)
Type: cell-based, human
Conditions: 0.5% O2, 48 h, glutamine-deficient medium supplemented with 7 mM dimethyl α-ketoglutarate
Description: In FIG. 2(A), SF188 cells were cultured for 24 h in complete medium equilibrated with either 21% O2 (Normoxia) or 0.5% O2 (Hypoxia). Culture medium was then removed from cells and analyzed for glutamine levels which were compared to the glutamine levels in fresh medium. Data are the mean±SEM of 3 independent experiments. […] Cells were cultured in complete medium equilibrated with 0.5% O2 for 24 h, followed by an additional 48 h at 0.5% O2 in either complete medium (+Gln), glutamine-deficient medium (−Gln), or glutamine-deficient medium supplemented with 7 mM dimethyl α-ketoglutarate (−Gln+αKG). All medium was pre-conditioned in 0.5% O2. Cell viability was determined by trypan blue dye exclusion. Data are the mean and range from 2 independent experiments. FIG. 2(C) depicts a model of the pathways for cit+4 and cit+5 production from [U-^13C]glutamine (glutamine+5). […] Cells were cultured for 24 h as in (A), followed by 4 h of culture in glutamine-deficient medium supplemented with 4 mM [U-^13C]glutamine. ^13C enrichment in cellular citrate was quantitated with GC-MS. […]
SF188 and RCC4 cells were cultured in Dulbecco's Modified Eagle's Medium (DMEM; Invitrogen 11965), 10% fetal bovine serum (FBS; Gemini Biosystems), 100 units/ml Penicillin, 100 ug/ml Streptomycin, 25 mM glucose, and 6 mM L-glutamine. […] Viability was determined by trypan blue exclusion. […]

SMILES: COC(=O)CCC(=O)C(=O)OC [dimethyl α-ketoglutarate]
- cell viability upon glutamine withdrawal: rescued the defect in cell viability
